Measured values as given in patent US20250320213A1, “Nitrogen-Containing Heterocyclic Compounds” (Pfizer Inc., priority 2024, published 2025).

target: T1, STAT6 (Homo sapiens, UniProt P42226); assay: STAT6 Reporter Luciferase Assay (IL-13 stimulated HaCaT keratinocyte NanoLuc reporter cells); type: cell-based; conditions: IL-13 stimulated HaCaT STAT6 NanoLuc reporter cells; read-out: Reporter EC50
T1 construct: stably transfected HaCaT keratinocyte cell line, which expresses NanoLuc luciferase reporter gene under the transcriptional control of the STAT6 responsive promoter; endogenous in cells; host or cells: HaCaT keratinocyte reporter cell line (stably transfected with a NanoLuc reporter)
T1 sequence (P42226 1-847): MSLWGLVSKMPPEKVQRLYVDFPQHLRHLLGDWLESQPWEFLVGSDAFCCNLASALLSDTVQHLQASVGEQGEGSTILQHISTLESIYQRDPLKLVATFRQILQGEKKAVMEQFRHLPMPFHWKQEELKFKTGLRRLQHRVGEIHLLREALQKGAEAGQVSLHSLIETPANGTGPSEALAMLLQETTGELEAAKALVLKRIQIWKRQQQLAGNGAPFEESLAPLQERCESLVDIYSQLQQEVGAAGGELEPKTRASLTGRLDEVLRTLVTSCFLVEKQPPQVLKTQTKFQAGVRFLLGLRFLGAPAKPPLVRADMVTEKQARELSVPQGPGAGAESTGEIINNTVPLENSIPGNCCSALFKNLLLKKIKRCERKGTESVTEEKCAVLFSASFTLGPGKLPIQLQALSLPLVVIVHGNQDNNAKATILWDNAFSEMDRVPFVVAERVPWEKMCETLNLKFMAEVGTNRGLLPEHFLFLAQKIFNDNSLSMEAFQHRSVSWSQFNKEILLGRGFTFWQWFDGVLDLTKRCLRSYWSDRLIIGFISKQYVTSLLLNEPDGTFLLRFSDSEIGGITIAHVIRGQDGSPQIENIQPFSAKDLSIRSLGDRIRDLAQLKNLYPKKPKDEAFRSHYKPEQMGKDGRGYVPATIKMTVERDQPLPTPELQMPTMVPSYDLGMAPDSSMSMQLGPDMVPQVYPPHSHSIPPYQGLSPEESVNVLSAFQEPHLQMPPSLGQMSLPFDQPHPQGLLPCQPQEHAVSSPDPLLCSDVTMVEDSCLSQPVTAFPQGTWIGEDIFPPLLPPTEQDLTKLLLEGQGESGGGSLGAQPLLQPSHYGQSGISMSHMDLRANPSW
How it was run: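 Compounds were tested as 11-point, 4-fold series in duplicate, applied for 2 h at 37 °C in low-serum (2% FBS) DMEM. The cells were a stable HaCaT line with NanoLuc under a STAT6-responsive IL-13Ra2 promoter. After 4 h with 0.12 nM IL-13, Nano-Glo luminescence was measured.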

Point of comparison: `CC(C)n1nc(C(=O)NCc2ccc(NC(=O)N(C)C)cc2)c2c1CCN(c1ccc(C(=O)N3C[C@@H]4CCO[C@@H]4C3)cn1)C2` [Example 241, N-(4-(3,3-dimethylureido)benzyl)-5-(5-((3aS,6aS)-hexahydro-2H-furo[2,3-c]pyrrole-5-carbonyl)pyridin-2-yl)-1-isopropyl-4,5,6,7-tetrahydro-1H-pyrazolo[4,3-c]pyridine-3-carboxamide], EC50 330 nM. Against it:
- CNC(=O)C1CCCN1C(=O)c1ccc(N2CCc3c(c(C(=O)NCc4ccc(NC(=O)N(C)C)cc4)nn3C(C)C)C2)nc1 (racemic) [Example 245, rac-(R)-N-(4-(3,3-dimethylureido)benzyl)-1-isopropyl-5-(5-(2-(methylcarbamoyl)pyrrolidine-1-carbonyl)pyridin-2-yl)-4,5,6,7-tetrahydro-1H-pyrazolo[4,3-c]pyridine-3-carboxamide] — 6.3-fold higher, 2090 nM
- CC(C)n1nc(C(=O)NCc2ccc(NC(=O)N3CC(C)(N(C)C)C3)c(F)c2)c2c1[C@@H](C)CN(c1ccc(C(=O)N(C)C)cc1)C2 [Example 659, (S)-N-(4-(3-(dimethylamino)-3-methylazetidine-1-carboxamido)-3-fluorobenzyl)-5-(4-(dimethylcarbamoyl)phenyl)-1-isopropyl-7-methyl-4,5,6,7-tetrahydro-1H-pyrazolo[4,3-c]pyridine-3-carboxamide] — 41-fold lower, 8 nM
- CC(C)n1nc(C(=O)NCc2ccc(NC(=O)N3CCN(C)CC3)cc2)c2c1[C@@H](C)CN(c1ccc(-c3nccn3C3CC3)cn1)C2 [Example 653, (S)-5-(5-(1-cyclopropyl-1H-imidazol-2-yl)pyridin-2-yl)-1-isopropyl-7-methyl-N-(4-(4-methylpiperazine-1-carboxamido)benzyl)-4,5,6,7-tetrahydro-1H-pyrazolo[4,3-c]pyridine-3-carboxamide] — 110-fold lower, 3 nM
- CCOC1CN(C(=O)c2ccc(N3CCc4c(c(C(=O)NCc5ccc(NC(=O)N(C)C)cc5)nn4C(C)C)C3)nc2)C1 [Example 242, N-(4-(3,3-dimethylureido)benzyl)-5-(5-(3-ethoxyazetidine-1-carbonyl)pyridin-2-yl)-1-isopropyl-4,5,6,7-tetrahydro-1H-pyrazolo[4,3-c]pyridine-3-carboxamide] — within 1.5-fold, 352 nM
- CC(C)n1nc(C(=O)NCc2ccc(NC(=O)N(C)C)cc2)c2c1CCN(c1ccc(C(=O)N3CCc4cnccc4C3)cn1)C2 [Example 434, N-(4-(3,3-dimethylureido)benzyl)-1-isopropyl-5-(5-(1,2,3,4-tetrahydro-2,6-naphthyridine-2-carbonyl)pyridin-2-yl)-4,5,6,7-tetrahydro-1H-pyrazolo[4,3-c]pyridine-3-carboxamide] — 4-fold lower, 82 nM
- CC(C)n1nc(C(=O)NCc2ccc(NC(=O)N3CCC[C@@H](N(C)C)C3)cc2)c2c1[C@@H](C)CN(c1ccc(C(=O)N(C)C)cc1)C2 [Example 754, (S)-N-(4-((R)-3-(dimethylamino)piperidine-1-carboxamido)benzyl)-5-(4-(dimethylcarbamoyl)phenyl)-1-isopropyl-7-methyl-4,5,6,7-tetrahydro-1H-pyrazolo[4,3-c]pyridine-3-carboxamide] — 160-fold lower, 2 nM
- CC(C)n1nc(C(=O)NCc2ccc(NC(=O)N3CC(N(C)C)C3)cc2)c2c1[C@@H](C)CN(c1ccc(C(=O)N(C)C)cc1)C2 [Example 746, (S)-N-(4-(3-(dimethylamino)azetidine-1-carboxamido)benzyl)-5-(4-(dimethylcarbamoyl)phenyl)-1-isopropyl-7-methyl-4,5,6,7-tetrahydro-1H-pyrazolo[4,3-c]pyridine-3-carboxamide] — 330-fold lower, 1 nM
- CC(C)n1nc(C(=O)NCc2ccc(NC(=O)N3CCC4(CCCN(C)C4)CC3)cc2)c2c1[C@@H](C)CN(c1ccc(C(=O)N(C)C)cc1)C2 [Example 757, (S)-N-(4-((5-(4-(dimethylcarbamoyl)phenyl)-1-isopropyl-7-methyl-4,5,6,7-tetrahydro-1H-pyrazolo[4,3-c]pyridine-3-carboxamido)methyl)phenyl)-2-methyl-2,9-diazaspiro[5.5]undecane-9-carboxamide] — 1100-fold lower, 0.3 nM
- CC(C)n1nc(C(=O)NCc2ccc(NC(=O)N(C)C)cc2)c2c1CCN(c1ccc(C(=O)N3Cc4cn(C)nc4C3)cn1)C2 [Example 385, N-(4-(3,3-dimethylureido)benzyl)-1-isopropyl-5-(5-(2-methyl-2,4,5,6-tetrahydropyrrolo[3,4-c]pyrazole-5-carbonyl)pyridin-2-yl)-4,5,6,7-tetrahydro-1H-pyrazolo[4,3-c]pyridine-3-carboxamide] — 82-fold lower, 4 nM
- CC(C)n1nc(C(=O)NCc2ccc(NC(=O)N3CCC4(CC3)CN(C)CCO4)cc2)c2c1[C@@H](C)CN(c1ccc(C(=O)N(C)C)cc1)C2 [Example 738, (S)-N-(4-((5-(4-(dimethylcarbamoyl)phenyl)-1-isopropyl-7-methyl-4,5,6,7-tetrahydro-1H-pyrazolo[4,3-c]pyridine-3-carboxamido)methyl)phenyl)-4-methyl-1-oxa-4,9-diazaspiro[5.5]undecane-9-carboxamide] — 330-fold lower, 1 nM
- COc1cccc2c1CN(C(=O)c1ccc(N3CCc4c(c(C(=O)NCc5ccc(NC(=O)N(C)C)cc5)nn4C(C)C)C3)nc1)C2 [Example 387, N-(4-(3,3-dimethylureido)benzyl)-1-isopropyl-5-(5-(4-methoxyisoindoline-2-carbonyl)pyridin-2-yl)-4,5,6,7-tetrahydro-1H-pyrazolo[4,3-c]pyridine-3-carboxamide] — 110-fold lower, 3 nM
- CC(C)n1nc(C(=O)NCc2ccc(NC(=O)N(C)C)cc2)c2c1CCN(c1ccc(C(=O)N3CCC(C)(C#N)C3)cn1)C2 (stereo not shown) [Example 240, 5-(5-(3-cyano-3-methylpyrrolidine-1-carbonyl)pyridin-2-yl)-N-(4-(3,3-dimethylureido)benzyl)-1-isopropyl-4,5,6,7-tetrahydro-1H-pyrazolo[4,3-c]pyridine-3-carboxamide] — 11-fold higher, 3630 nM
- CC(C)n1nc(C(=O)NCc2ccc(NC(=O)N3CCN(C)[C@@H](C)C3)c(F)c2)c2c1[C@@H](C)CN(c1ccc(C(=O)N(C)C)cc1)C2 [Example 680, (S)-5-(4-(dimethylcarbamoyl)phenyl)-N-(4-((S)-3,4-dimethylpiperazine-1-carboxamido)-3-fluorobenzyl)-1-isopropyl-7-methyl-4,5,6,7-tetrahydro-1H-pyrazolo[4,3-c]pyridine-3-carboxamide] — 160-fold lower, 2 nM
- CC(C)n1nc(C(=O)NCc2ccc(NC(=O)N3CCN(CCC(=O)O)CC3)c(F)c2)c2c1[C@@H](C)CN(c1ccc(C(=O)N(C)C)cc1)C2 [Example 669, (S)-3-(4-((4-((5-(4-(dimethylcarbamoyl)phenyl)-1-isopropyl-7-methyl-4,5,6,7-tetrahydro-1H-pyrazolo[4,3-c]pyridine-3-carboxamido)methyl)-2-fluorophenyl)carbamoyl)piperazin-1-yl)propanoic acid] — 1.6-fold lower, 201 nM

same assay, conditions: STAT6 NanoLuc luciferase reporter, IL-13 stimulated HaCaT keratinocyte cells; read-out: Reporter EC50

For `CC(C)n1nc(C(=O)NCc2ccc(NC(=O)N3C[C@H]4CC[C@@H]3C4)cc2)c2c1CCN(c1ccc(C(=O)N(C)C)cn1)C2` (racemic) [Example 143, rac-N-(4-((1R,4S)-2-azabicyclo[2.2.1]heptane-2-carboxamido)benzyl)-5-(5-(dimethylcarbamoyl)pyridin-2-yl)-1-isopropyl-4,5,6,7-tetrahydro-1H-pyrazolo[4,3-c]pyridine-3-carboxamide], the EC50 was 11 nM.
